Results on 16 compounds are retold here after PubChem BioAssay (NCI).

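Tested at 5 concentrations; 48 h exposure; 96-well plates; endpoints linearly interpolated, else capped at highest concentration. Definition used: TGI = concentration required for complete inhibition of growth.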

Common to all, as to test: inhibition of tumour cell growth, NCI panel, 48 h
Experiment [1] has as its system A549 NSCLC.
Experiment [2] relates to M14 melanoma.
Experiment [3] deals with MCF7 breast.
The test system of experiment [4] is PC-3 prostate.
The test system of experiment [5] is SF-539 CNS.
Experiment [6] concerns SK-MEL-5 melanoma.
Experiment [7] deals with SNB-19 CNS.
Experiment [8] relates to TK-10 renal.
The subject of experiment [9] is U251 CNS.
The test system of experiment [10] is A498 renal.

Regarding `CC(=O)Nc1ccc(CNc2cc(=O)[nH]c(=O)[nH]2)cc1`, the TGI in experiment [1], in experiment [2], in experiment [3], in [4], in [5] and in experiment [6] was over 100 µM each time. In addition, the TGI in experiment [7], in [8] and in experiment [9] was over 100 µM each time.

On to `Cc1nn(C(=O)c2ccc(Cl)cc2)c2c1C(c1ccc([N+](=O)[O-])cc1)SC(N)=N2` (stereo unspecified), for which the TGI in experiment [1], in experiment [2], in experiment [3], in [4], in experiment [5] and in experiment [6] was over 10 µM each time. The TGI in experiment [7], in experiment [8] and in experiment [9] was over 10 µM each time.

Regarding `N#CCC(=O)Nn1c(CC#N)nnc1Cc1ccccc1`, the TGI in [1], in [2], in experiment [3], in experiment [4], in [5] and in experiment [6] was over 100 µM throughout. The TGI in experiment [7], in [8] and in [9] was over 100 µM throughout.

With `Cc1c(-c2cc3n(n2)C(c2cccs2)C(C#N)=C(c2ccccc2)N3)c(=O)n(-c2ccccc2)n1C` (stereo unspecified), the TGI in [10] was over 100 µM; in [1] it was over 100 µM; in [3] it was over 100 µM; in experiment [5] it was over 100 µM; in [6], over 85.8 µM; in experiment [7], over 100 µM. The same compound showed a TGI in [9] of over 90.8 µM.

As for `COC(OC)c1cccc2c1C1(O)CCC3(CC21)OCCCCO3` (stereo unspecified), the TGI in experiment [10], in experiment [1], in [2], in experiment [5], in [6] and in [7] was over 100 µM in each case. For the same compound, the TGI in experiment [8] and in [9] was over 100 µM in each case.

Turning to `COc1cc(OC)c2c(c1OC)OCC(Cc1ccc(O)cc1)C2=O` (stereo unspecified), the TGI in experiment [10], in experiment [1], in [2], in experiment [4], in [5] and in [6] was over 25 µM in each case. The TGI in experiment [7], in experiment [8] and in [9] was over 25 µM in each case.

On to `CC[N+]1(C)CCC(O)(c2ccc(Cl)cc2)C(C(=O)c2ccc(Cl)cc2)C1` (stereo unspecified), for which the TGI came to 48.3 µM in [10]; 36.2 µM in [2]; 2.71 µM in [3]; 33 µM in experiment [4]; 31.8 µM in experiment [7]; 34.1 µM in experiment [8]. This compound also returned a TGI in experiment [9] of 56.8 µM.

Consider `O=C(N/N=C1\CCc2ccccc2C1)N/N=C1\CCc2ccccc2C1`, for which the TGI in experiment [1], in experiment [2], in experiment [3], in [4], in experiment [7] and in experiment [8] was over 10 µM in each case. This compound also displayed a TGI in experiment [9] of over 10 µM.

Consider `COc1ccc(/C=C2\CSC/C(=C\c3ccc(OC)c(OC)c3OC)C2=O)c(OC)c1OC`, for which the TGI in experiment [1] was over 100 µM; in experiment [2], 40.2 µM; in experiment [3], over 100 µM; in experiment [4], over 100 µM; in [5], 88.6 µM; in [6], 88.6 µM. In addition, the TGI in experiment [7], in experiment [8] and in experiment [9] was over 100 µM each time.

As for `COC(=O)C1=Nc2c(C)nn(-c3ccccc3)c2N=C(c2ccc(C)cc2)C1`, the TGI in experiment [1], in [2], in [3], in [4], in experiment [5] and in experiment [6] was over 10 µM each time. The TGI in experiment [7], in [8] and in [9] was over 10 µM in each case.

In the case of `C=C(C=O)c1c2c(nc3ccccc13)C(=O)c1ccccc1C2=O`, the TGI in [10] came to 3.76 µM; in [2], 1.6 µM; in [4], 10.6 µM; in experiment [5], 0.605 µM; in experiment [6], 0.339 µM; in [7] it was 2.8 µM. In addition, the TGI in experiment [8] is 2.32 µM; in [9], over 100 µM.

On to `Cc1ccc2c(c1)NC(=O)CCSSCCC(=O)N2`, for which the TGI in experiment [10], in experiment [1], in experiment [2], in [4], in experiment [5] and in [6] was over 100 µM in each case. The TGI in [7], in experiment [8] and in [9] was over 100 µM each time.

`O=P(O)(O)C(CSc1ccccc1)P(=O)(O)O`: the TGI in experiment [10], in [1], in experiment [3], in [5], in experiment [6] and in experiment [7] was over 100 µM throughout. In experiment [9], this compound returned a TGI of over 100 µM.

Turning to `O=C(O)CSc1cc(-c2ccccc2)nc2ccccc12`, the TGI is 67 µM in [10]; over 100 µM in [1]; over 100 µM in experiment [2]; over 100 µM in [4]; over 100 µM in [6]; over 100 µM in [7]. The TGI in experiment [8] and in [9] was over 100 µM each time.

For the compound `O=C1CCCc2c1c1c(n2Cc2ccccc2)-c2ccccc2C1=O`, the TGI was 88.2 µM in experiment [1]; 46.4 µM in experiment [2]; over 100 µM in experiment [3]; 96.6 µM in experiment [4]; 48.6 µM in experiment [5]; 40.7 µM in [6]. In addition, the TGI turned out to be 41.1 µM in experiment [7], 31.4 µM in experiment [8] and 43.9 µM in experiment [9].

For `CC(=O)[O-].CC(=O)[O-].O=C(N/N=C/c1cc(Cl)cc(Cl)c1[OH2+])c1ccncc1.[Co+2]`, the TGI in experiment [10], in [1], in [2], in experiment [5], in experiment [6] and in [7] was over 100 µM throughout. Also, the TGI in [8] is over 100 µM.
